# Reference: ChEMBL document CHEMBL1142398, “Chemical stability of the peroxide bond enables diversified synthesis of potent tetraoxane antimalarials” (J Med Chem, 2008)
# Columns and labels:
# [1] = Metabolic stability assessed as half life in mouse liver microsomes; assay type: ADME, Microsome
# [2] = Metabolic stability assessed as half life in human liver microsomes; assay type: ADME, Microsome
# Plasmodium falciparum [3] = experiment: microbe, parasite or virus in culture; settings: W2
# Description: Antimalarial activity against Plasmodium falciparum W2
# Plasmodium falciparum [4] = experiment: microbe, parasite or virus in culture; settings: TM91C235
# Description: Antimalarial activity against multidrug-resistant Plasmodium falciparum TM91C235
# Plasmodium berghei [5] = experiment: Antimalarial activity against Plasmodium berghei KBG173 infected CD1 mice (Mus musculus) at 320 mg/kg/day peroral dose as survival time after 3-5 days; assay type: functional; settings: route oral
# Plasmodium berghei [6] = experiment: Antimalarial activity against Plasmodium berghei KBG173 infected CD1 mice (Mus musculus) at 20 mg/kg/day peroral dose as survival time after 3-5 days; assay type: functional; settings: route oral
# Plasmodium falciparum [7] = experiment: microbe, parasite or virus in culture; settings: D6
# Description: Antimalarial activity against Plasmodium falciparum D6
# Plasmodium berghei [8] = experiment: Antimalarial activity against Plasmodium berghei KBG173 infected CD1 mice (Mus musculus) at 80 mg/kg/day peroral dose as survival time after 3-5 days; assay type: functional; settings: route oral
# 786-0 = experiment: Antiproliferative activity against human 786-0 cells after 48 hrs; assay type: functional; settings: 786-0, 48 h
# T47D = experiment: Antiproliferative activity against human T47D cells after 48 hrs; assay type: functional
# IGROV-1 = experiment: Antiproliferative activity against human IGROV1 cells after 48 hrs; assay type: functional; settings: IGROV-1, 48 h
# DU-145 = experiment: Antiproliferative activity against human DU145 cells after 48 hrs; assay type: functional; settings: DU-145, 48 h
# [9] = Antiproliferative activity against human HL60(TB) cells after 48 hrs; assay type: functional, HL-60(TB); settings: HL-60, 48 h
# EKVX = experiment: Antiproliferative activity against human EKVX cells after 48 hrs; assay type: functional
# UO-31 = experiment: Antiproliferative activity against human UO31 cells after 48 hrs; assay type: functional; settings: UO-31, 48 h
# NCI/ADR-RES = experiment: Antiproliferative activity against human NCI/ADR-RES cells after 48 hrs; assay type: functional
# SF-295 = experiment: Antiproliferative activity against human SF295 cells after 48 hrs; assay type: functional; settings: SF-295, 48 h
# SK-MEL-2 = experiment: Antiproliferative activity against human SKMEL2 cells after 48 hrs; assay type: functional; settings: SK-MEL-2, 48 h
# CCRF-CEM = experiment: Antiproliferative activity against human CCRF-CEM cells after 48 hrs; assay type: functional
# HOP-92 = experiment: Antiproliferative activity against human HOP92 cells after 48 hrs; assay type: functional; settings: HOP-92, 48 h
# SR = experiment: Antiproliferative activity against human SR cells after 48 hrs; assay type: functional
# U-251 = experiment: Antiproliferative activity against human U251 cells after 48 hrs; assay type: functional; settings: U-251, 48 h
# PC-3 = experiment: Antiproliferative activity against human PC3 cells after 48 hrs; assay type: functional; settings: PC-3, 48 h
# NCI-H460 = experiment: Antiproliferative activity against human NCI-H460 cells after 48 hrs; assay type: functional; settings: NCI-H460, 48 h
# LOX IMVI = experiment: Antiproliferative activity against human LOXIMVI cells after 48 hrs; assay type: functional
# SF-539 = experiment: Antiproliferative activity against human SF539 cells after 48 hrs; assay type: functional; settings: SF-539, 48 h
# MOLT-4 = experiment: Antiproliferative activity against human MOLT4 cells after 48 hrs; assay type: functional; settings: MOLT-4, 48 h
# [10] = read-out: LC50 (the source's name)
smiles,measurement,setting,value
CN(C)CCNC(=O)C1CCC2(CC1)OOC1(CCCCC1)OO2,half-life,[1],> 1 h
same,half-life,[2],> 1 h
same,IC50,Plasmodium falciparum [3],9.72 nM
same,IC90,Plasmodium falciparum [3],17.9 nM
same,IC50,Plasmodium falciparum [4],7.24 nM
same,IC90,Plasmodium falciparum [4],12.8 nM
same,Survival,Plasmodium berghei [5],17.4 days
same,Survival,Plasmodium berghei [6],7.2 days
same,IC50,Plasmodium falciparum [7],11.2 nM
same,IC90,Plasmodium falciparum [7],15.1 nM
same,Survival,Plasmodium berghei [8],7.6 days
CC(=O)O[C@H]1C[C@H]2[C@@H]([C@H](OC(C)=O)C[C@@H]3CC4(CC[C@@]32C)OOC2(CCCCC2)OO4)[C@@H]2CC[C@H]([C@H](C)CCCN=[N+]=[N-])[C@@]12C,IC50,Plasmodium falciparum [3],6.3 nM
same,IC90,Plasmodium falciparum [3],21.6 nM
same,IC50,Plasmodium falciparum [4],13.9 nM
same,IC90,Plasmodium falciparum [4],20.6 nM
same,IC50,Plasmodium falciparum [7],8.6 nM
same,IC90,Plasmodium falciparum [7],13.3 nM
COC(=O)C1CCC2(CC1)OOC1(CCCCC1)OO2,IC50,Plasmodium falciparum [3],40.4 nM
same,IC90,Plasmodium falciparum [3],62.5 nM
same,IC50,Plasmodium falciparum [4],27 nM
same,IC90,Plasmodium falciparum [4],110 nM
same,IC50,Plasmodium falciparum [7],29.2 nM
same,IC90,Plasmodium falciparum [7],83.9 nM
O=C(O)C1CCC2(CC1)OOC1(CCCCC1)OO2,IC50,Plasmodium falciparum [3],413 nM
same,IC90,Plasmodium falciparum [3],520 nM
same,IC50,Plasmodium falciparum [4],411 nM
same,IC90,Plasmodium falciparum [4],523 nM
same,IC50,Plasmodium falciparum [7],429 nM
same,IC90,Plasmodium falciparum [7],467 nM
COC(=O)CC[C@@H](C)[C@H]1CC[C@H]2[C@@H]3[C@H](OC(C)=O)C[C@@H]4CC5(CC[C@]4(C)[C@H]3C[C@H](OC(C)=O)[C@]12C)OOC1(CCCCC1)OO5,IC50,Plasmodium falciparum [3],17 nM
same,IC50,Plasmodium falciparum [7],21.5 nM
C[C@H](CCCO)[C@H]1CC[C@H]2[C@@H]3[C@H](O)C[C@@H]4CC5(CC[C@]4(C)[C@H]3C[C@H](O)[C@]12C)OOC1(CCCCC1)OO5,GI50,786-0,230 nM
same,TGI,786-0,540 nM
same,CC50,786-0; [10],2010 nM
same,GI50,T47D,330 nM
same,TGI,T47D,930 nM
same,CC50,T47D; [10],5300 nM
same,GI50,IGROV-1,< 10 nM
same,TGI,IGROV-1,10 nM
same,CC50,IGROV-1; [10],60 nM
same,GI50,DU-145,110 nM
same,TGI,DU-145,230 nM
same,CC50,DU-145; [10],480 nM
same,GI50,[9],150 nM
same,TGI,[9],310 nM
same,CC50,[9]; [10],620 nM
same,GI50,EKVX,140 nM
same,TGI,EKVX,310 nM
same,CC50,EKVX; [10],650 nM
same,GI50,UO-31,40 nM
same,TGI,UO-31,170 nM
same,CC50,UO-31; [10],610 nM
same,GI50,NCI/ADR-RES,250 nM
same,TGI,NCI/ADR-RES,590 nM
same,CC50,NCI/ADR-RES; [10],4270 nM
same,GI50,SF-295,170 nM
same,TGI,SF-295,330 nM
same,CC50,SF-295; [10],660 nM
same,GI50,SK-MEL-2,200 nM
same,TGI,SK-MEL-2,390 nM
same,CC50,SK-MEL-2; [10],730 nM
same,GI50,CCRF-CEM,100 nM
same,TGI,CCRF-CEM,240 nM
same,CC50,CCRF-CEM; [10],560 nM
same,GI50,HOP-92,140 nM
same,TGI,HOP-92,320 nM
same,CC50,HOP-92; [10],730 nM
same,GI50,SR,160 nM
same,TGI,SR,340 nM
same,CC50,SR; [10],720 nM
same,GI50,U-251,210 nM
same,TGI,U-251,460 nM
same,CC50,U-251; [10],980 nM
same,GI50,PC-3,290 nM
same,TGI,PC-3,990 nM
same,CC50,PC-3; [10],3410 nM
same,IC50,Plasmodium falciparum [3],109 nM
same,IC90,Plasmodium falciparum [3],298 nM
same,GI50,NCI-H460,240 nM
same,TGI,NCI-H460,620 nM
same,CC50,NCI-H460; [10],2680 nM
same,GI50,LOX IMVI,20 nM
same,TGI,LOX IMVI,30 nM
same,CC50,LOX IMVI; [10],60 nM
same,IC50,Plasmodium falciparum [4],166 nM
same,IC90,Plasmodium falciparum [4],340 nM
same,GI50,SF-539,170 nM
same,TGI,SF-539,320 nM
same,CC50,SF-539; [10],590 nM
same,GI50,MOLT-4,180 nM
same,TGI,MOLT-4,410 nM
same,CC50,MOLT-4; [10],960 nM
same,IC50,Plasmodium falciparum [7],130 nM
same,IC90,Plasmodium falciparum [7],623 nM
CC(=O)OCCC[C@@H](C)[C@H]1CC[C@H]2[C@@H]3[C@H](OC(C)=O)C[C@@H]4CC5(CC[C@]4(C)[C@H]3C[C@H](OC(C)=O)[C@]12C)OOC1(CCCCC1)OO5,IC50,Plasmodium falciparum [3],11.6 nM
same,IC90,Plasmodium falciparum [3],26.3 nM
same,IC50,Plasmodium falciparum [4],19.2 nM
same,IC90,Plasmodium falciparum [4],29.3 nM
same,IC50,Plasmodium falciparum [7],15.9 nM
same,IC90,Plasmodium falciparum [7],28.4 nM
NC(=O)C1CCC2(CC1)OOC1(CCCCC1)OO2,IC50,Plasmodium falciparum [3],20.2 nM
same,IC90,Plasmodium falciparum [3],40.4 nM
same,IC50,Plasmodium falciparum [4],27.2 nM
same,IC90,Plasmodium falciparum [4],55.6 nM
same,IC50,Plasmodium falciparum [7],24 nM
same,IC90,Plasmodium falciparum [7],42.8 nM
C[C@@H]1CC[C@H]2[C@@H](C)C(=O)O[C@@H]3O[C@@]4(C)CC[C@@H]1[C@]32OO4 [ARTEMISININ],IC50,Plasmodium falciparum [3],6.7 nM
same,IC90,Plasmodium falciparum [3],11.5 nM
same,IC50,Plasmodium falciparum [4],13 nM
same,IC90,Plasmodium falciparum [4],17.4 nM
same,IC50,Plasmodium falciparum [7],9 nM
same,IC90,Plasmodium falciparum [7],12.8 nM
CCN(CC)CCCC(C)Nc1ccnc2cc(Cl)ccc12 (stereo not given) [CHLOROQUINE],IC90,Plasmodium falciparum [3],1020 nM
same,IC90,Plasmodium falciparum [4],345 nM
same,IC90,Plasmodium falciparum [7],17.6 nM
O[C@@H](c1cc(C(F)(F)F)nc2c(C(F)(F)F)cccc12)[C@H]1CCCCN1 [MEFLOQUINE],IC90,Plasmodium falciparum [3],9.45 nM
same,IC50,Plasmodium falciparum [4],22.4 nM
same,IC90,Plasmodium falciparum [4],50.1 nM
same,IC50,Plasmodium falciparum [7],7.34 nM
same,IC90,Plasmodium falciparum [7],19.5 nM
